This passage reports pest or weed control and mortality results from patent US12653190B2, “Heteroaryl-triazole compounds as pesticides” (Bayer Aktiengesellschaft, priority 2020, dated 2026).

Common to all, as to assay type: in vivo
Test [1] deals with adult brown dog ticks (Rhipicephalus sanguineus). The experiment in a line: Rhipicephalus sanguineus in-vitro contact test, adult brown dog ticks. The note with it: 5 μg/cm^2 (=500 g/ha), after 48 hours, read-out: efficacy (ticks dead or moribund). How it is done:
Rhipicephalus sanguineus—In-Vitro Contact Tests with Adult Brown Dog Ticks
9 mg compound is solved in 1 mL acetone and diluted with acetone to the desired concentration. 250 μL of the test solution is filled in 25 mL glass test tubes and homogeneously distributed on the inner walls by rotation and tilting on a shaking device (2 h at 30 rpm). With a compound concentration of 900 ppm, an inner surface of 44.7 cm^2 and a homogeneous distribution, a dose of 5 μg/cm^2 is achieved.
After the solvent has evaporated, each test tube is filled with 5-10 adult brown dog ticks (Rhipicephalus sanguineus), closed with a perforated lid and incubated in a lying position at room temperature and relative humidity. After 48 hours efficacy is determined. The ticks are patted on the ground of the tubes and are incubated on a heating plate at 45-50° C. for at most 5 minutes Immotile or uncoordinated moving ticks, which are not able to escape the heat by climbing upwards, are marked as dead or moribund.
An efficacy of 100% means all ticks are dead or moribund; 0% means no ticks are dead or moribund.

Test [2] deals with adult mosquitoes Aedes aegypti strain MONHEIM. Kind of test: Aedes aegypti test (AEDSAE surface treatment & contact assay). The conditions noted are these: 24 hours after contact, read-out: efficacy (mortality). Summed up:
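Compound in acetone (2 mg/ml) with 2000 ppm rapeseed oil methyl ester applied to glazed tile and dried; adult Aedes aegypti MONHEIM exposed on surface for 30 min. Percent mortality scored 24 h after contact.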

The test system of test [3] is green peach aphid (Myzus persicae). Kind of test: Myzus persicae spray test. The note with it: foliar, 120 h, after 5 days, Chinese cabbage leaf disks. In outline: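 Chinese cabbage leaf disks infested with all aphid instars were sprayed with compound in acetone/DMF, diluted in water with 1000 ppm alkylarylpolyglycol ether emulsifier. Mortality (%) scored after 5 days, 100% meaning all aphids killed.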

In test [4] the test system is larvae of the southern green stink bug (Nezara viridula). The experiment in a line: Nezara viridula spray test. The note with it: 96 h, 100 g/ha, after 4 days, barley plants. Summed up: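 Percent mortality of southern green stink bug larvae was recorded at day 4, with 100% meaning all dead. The larvae were placed on barley sprayed with the test solution. That solution was prepared from acetone/dimethylformamide concentrate diluted in emulsifier-containing water (1000 ppm).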

As to `C[C@H](NC(=O)c1cc(Cl)cc(OS(C)(=O)=O)c1)c1ncnn1-c1ccc(C#N)cn1` [Example I-46], the pest or weed control at 5 µg/cm2, 5 µg/cm2 in test [1] amounted to 100%. For the same compound, in test [2] (surface concentration 4 mg/m^2, 30 minutes exposure), the mortality at 4 mg/m2 was in the range of 80 to 100%. In addition, the mortality at 20 mg/m2 in test [2] (surface concentration 20 mg/m^2, 30 minutes exposure) lay within 80 to 100%. Also, the mortality at 100 g/ha in test [3] and in test [4] was 100% throughout.

As a reminder, the mortality is the percentage killed.
